Data on 1 compound can be found in patent US4952564A, “Antiallergic agent” (Dainippon Ink and Chemicals, Inc., priority 1986, dated 1990).

One series has as its system ileum of the guinea pig. The series is described as follows: Schultz-Dale reaction (antigen-induced contraction of ileum of actively sensitized guinea pig). In kind it is cell-based, guinea pig (Hartley). The procedure: The Schultz-Dale test and the inhibition effect of the compound of the present invention on the liberation of histamines by a compound 48/80 indicate that isoliquiritigenin has an antiallergic activity.
(1) Active sensitization of guinea pig by antigenic egg-white albumin (EWA)
After 1, 2 and 3 weeks, additional sensitization was conducted by injecting an equivalent mixed emulsion of a physiological saline solution of 4 mg/ml of EWA and complete Freund's adjuvant into the muscle at a ratio of 0.1 ml/100 g and the guinea pig was subjected to the Schultz-Dale reaction one week after the final sensitization.
(2) Schultz-Dale reaction
The ileum of the guinea pig which was actively sensitized in (1) above was extirpated and immediately soaked in Tyrode's solution to form a specimen of a length of 15 mm which was suspended at a tensile force of l.5 g in a Magnus' tube (10 ml) kept at a temperature of 37° C. Contraction of the ileum by 10^-6 mole of histamine. […] Then, after preincubation for about 2 minutes, 10 μg/ml of EWA was added to the Magnus' tube and the contraction of the ileum was recorded. As a control, the contraction of the ileum was measured by an operation which was similar to that of the above, except that the physiological saline solution of isoliquiritigenin containing 0.2% sodium bicarbonate was not applied. […]

Series [1] concerns rat peritoneal exudation cells. The series is described as follows: Inhibition effect on the liberation of histamine by compound 48/80. In kind it is cell-based. To be noted: for Liberation ratio of histamine (%): control 87.4, blank 9.3. Here is the method: 2. Inhibition effect of the medicine on the liberation of histamine by compound 48/80.
(1) Preparation of rat peritoneal exudation cells
10 ml of Locke's solution containing 0.1% of bovine serum albumin was injected into the abdominal cavity of a rat which had been killed by exsanguination. The rat was lightly massaged, then subjected to an abdominal section so that an abdominal solution was collected. The abdominal cavity was also washed with 5 ml of the same solution and the washing solution was collected and mixed with the above abdominal solution. The abdominal solution was centrifuged at 500 rpm for 5 minutes, then 5 ml of cool Locke's solution was added to the sediment. After the sediment had been washed, 3 ml of cool Locke's solution was again added thereto to form a solution of rat peritoneal exudation cells.
(2) Inhibition effect of medicine on the liberation of histamine by compound 48/80.
0.5 ml of Locke's solution and 1.0 ml of each of the solutions of isoliquiritigenin prepared to the concentration shown in Table 2 (the isoliquiritigenin was dissolved in a physiological saline solution containing 1% sodium bicarbonate, the resultant solution being diluted with Locke's solution) were added to 0.3 ml of the solution of rat peritoneal exudation cells obtained in (1) above and were incubated at 37° C. for 5 minutes. Then, 0.2 ml each of a Locke's solution of the compound 48/80 (1 mg/100 ml) was added to the solution and the mixture was incubated at 37° C. for 10 minutes. After the reaction was stopped by cooling, the obtained solution was centrifuged at 2,500 rpm for 10 minutes to be separated into 1.7 ml of supernatant and 0.3 ml of sediment. 0.1 ml of water and 0.2 ml of 100% trichloroacetic acid were added to the supernatant, and 1.5 ml of Locke's solution and the 100% trichloroacetic acid were added to the sediment which was then allowed to stand for 30 minutes at room temperature and was centrifuged at 3,000 rpm for 15 minutes. 0.35 ml of each of the supernatant and the supernatant of the sediment was taken and 1.65 ml of water and 0.4 ml of 1N sodium hydroxide were added in turn to each of the supernatants. 0.1 ml of 0.5% OPT (orthophthalaldehyde) methanol solution was added to each of the resultant solutions which were then allowed to react at room temperature for 4 minutes. After the reaction was stopped by the addition of 0.2 ml of 2M citric acid, the fluorescence of each of the reaction solutions was measured by a fluorophotometer. […]
The inhibition ratio of isoliquiritigenin for the liberation of histamine by the compound 48/80 is calculated from the following equations: [formula]

The conditions of series [2]: used in treatment of gastric ulcers; cited from earlier work.
The nature of series [3]: Side effects when administered for a long time. In kind it is in vivo. To be noted: no test described.
For a further series, the system named is ddY male mice. The series is described as follows: Acute toxicity (minimum lethal dose) in mice. In kind it is in vivo. To be noted: for minimum lethal dose: five 5-week-old ddY male mice. Here is the method:
Isoliquiritigenin was orally or intra-peritoneally administered to five 5-week-old ddY male mice. Consequently, it was determined that the minimum lethal dose was not less than 3000 mg/kg (oral administration) or not less than 1000 mg/kg (intra-peritoneal administration).

`O=C(/C=C/c1ccc(O)cc1)c1ccc(O)cc1O` [Isoliquiritigenin, isoliquiritigenin]: in the series with ileum of the guinea pig (Cavia porcellus, 10^-4 mole, EWA 10 μg/ml, versus control, read-out: Inhibition ratio (%)), the inhibition at 100 µM was 90.2%. The “contraction of the ileum of the guinea pig by histamine and SRS-A” value in the series on ileum of the guinea pig (result in words) was “inhibits the contraction of the ileum of the guinea pig by histamine and SRS-A”. The “Liberation ratio of histamine (%)” value in series [1] (isoliquiritigenin 100 mg/ml) is listed as 71.0%; in series [1] (isoliquiritigenin 300 mg/ml), 32.7%; in series [1] (isoliquiritigenin 1000 mg/ml), 9.2%. Moreover, the “liberation of histamine from mast cells by compound 48/80” value in series [1] (result in words) is reported as “inhibits histamines from liberating mast cells by the compound 48/80”. The antiulcerous activity result in series [2] was “exhibits an antiulcerous activity”. Further, the side effects entry in series [3] was “few side effects”. The minimum lethal dose entry is reported as “not less than 1000 mg/kg” in the series with ddY male mice (intra-peritoneal administration) and “not less than 3000 mg/kg” with ddY male mice (oral administration). In addition, in the series with ddY male mice (result in words), the toxicity result is “very low toxicity”.
